Source: patent US20140315789A1, “ANTIMICROBIAL PEPTIDES AND USES THEREOF” (NEWSOUTH INNOVATIONS PTY LIMITED, priority 2011, published 2014)

What was measured:
[1] = tested on: Staphylococcus aureus strain 38; test: Bacterial adhesion to peptide-coated glass surfaces, LIVE/DEAD fluorescence microscopy; format: cell-based; details: S. aureus; for total surface coverage of bacteria / proportion of non-viable bacteria / reduction in total bacteria compared with BLK: peptide attached to maleimide-functionalised glass; for total surface coverage of bacteria: 48 hours incubation, controls more than 16%; for proportion of non-viable bacteria: BLK 2.2%; for reduction in total bacteria compared with BLK: versus blank glass
Procedure: (§1) Bacterial strains (Staphylococcus aureus strain 38 or Pseudomonas aeruginosa PA01) were streaked onto Chocolate agar (Oxoid, UK) and incubated overnight at 37° C. A single colony was cultured in 10 ml of tryptone soya broth (TSB) (Oxoid, UK) overnight to log phase at 37° C. Optical density of the resulting culture was adjusted to OD660 of 0.1 (corresponding to 1×10^8 cfu/ml) in TSB media (0.25% w/v glucose). Bacterial numbers were confirmed by a retrospective viable count.
(§2) Glass surfaces were placed in 4 ml of the above culture and incubated at 37° C. with shaking at 60 rpm for 24 hours, then the media was replaced with fresh TSB (4 ml) and incubated for a further 24 hours (total of 48 hours). The samples were then washed with PBS before examination by fluorescent staining
(§3) Glass samples with adherent bacteria prepared as described above were stained with LIVE/DEAD BacLight Bacterial Viability Kit (Molecular Probes, Inc., OR, USA) according to the manufacturer's directions as described by others for the analysis of biofilms at surfaces (Kirov, Barraud). Microscopic observation and image acquisition was performed with Olympus FV1000 Confocal Inverted Microscope. Images obtained from 10 representative areas on each of triplicate samples for each surface were analysed using Image software (Abramoff et al.); Biophotonics International. 2004, 11(7), pp 36-42 and Rasband et al. Image). Bethesda Md., USA, U.S. National Institutes of Health, 1997 ? 2011, available from http://imagej.hih.gov.au/ij/). The image analysis results were measured as the average area of live cells and the average area of dead cells per field of view and are reported as the average percentage coverage. Prior to comparing the groups, equality of variances was tested using Levene's test. Unequal variances were adjusted by transforming the data using square root transformation. Differences between the groups were analysed using linear mixed model ANOVA, which adjusts the correlation due to repeated observations. Post hoc multiple comparisons were done using Dunnett T3 comparison. Statistical significance was set at 5%.
(§4) The adhesion of Pseudomonas aeruginosa and Staphylococcus aureus to the modified surfaces was evaluated using fluorescence microscopy. The images obtained were analysed using ImageJ software (Abramoff et al. J. Biophotonics International. 2004, 11(7), pp 36-42 and Rasband et al. ImageJ. Bethesda Md., USA, U.S. National Institutes of Health, 1997-2011, available from http://imagej.hih.gov.au/ij/). The areas of the surfaces covered by bacteria and the relative proportions of bacteria with intact and damaged membranes for each surface were examined by image analysis and the results are shown in FIG. 4.

[2] = tested on: Pseudomonas aeruginosa PA01; test: as above; format: cell-based; details: P. aeruginosa; for total surface coverage of bacteria / proportion of non-viable cells to total bacteria present / reduction of total surface coverage compared to BLK: peptide attached to maleimide-functionalised glass; for total surface coverage of bacteria: 48 hours incubation, BLK over 21.7%; for proportion of non-viable cells to total bacteria present: BLK 5.8%; for reduction of total surface coverage compared to BLK: versus blank glass
Procedure: as §1, §2, §3, §4

[3] = surface-attached, fold versus CysC

Sequence | total surface coverage of bacteria [1] | proportion of non-viable bacteria [1] | reduction in total bacteria compared with BLK [1] | total surface coverage of bacteria [2] | proportion of non-viable cells to total bacteria present [2] | reduction of total surface coverage compared to BLK [2] | effectiveness in reducing total surface coverage relative to CysC [1, 3] | nonviable cells (stained red) relative to CysC [1, 3] | effectiveness in reducing total surface coverage relative to CysC [2, 3] | nonviable cells (stained red) relative to CysC [2, 3]
TLISWIKNKRKQCRPRVSRRRRRRGGRRRR [Cys13, melimine wherein an extra cysteine residue has been added to position 13] | 6.3% | 9.8% | 64.1% | 7.1% | 30.1% | 67.4% | – | – | – | –
TLISWIKNKRKQRPRVSRRRRRRGGRRRRC [CysC, melimine wherein an extra cysteine residue has been added to the C-terminus] | 11.8% | not different to the control | – | 11.3% | not statistically different to the controls | 47.7% | – | – | – | –
CTLISWIKNKRKQRPRVSRRRRRRGGRRRR [CysN, melimine wherein an extra cysteine residue has been added to the N-terminus] | 3.0% | 13.0% | 82.7% | 6.6% | 40.6% | 69.4% | approximately 4 times | approximately 8 times | approximately 2 times | ~3 times
